The values that follow come from patent US6004957A, “Sulfonamide inhibitors of aspartyl protease” (Vertex Pharmaceuticals, Incorporated, priority 1998, dated 1999).

One may read the pKi as the negative decadic logarithm of the Ki, by convention in mol/L. The low end stands for a high Ki, the high end for a low Ki. As a reminder, the IC90 is the concentration at which the effect reaches the 90% level.

SMILES strings stand for the structures. pKi: −log10 of the molar value.

In experiment [1] the target is HIV-1 protease (Human immunodeficiency virus type 1 group M subtype B, UniProt P04585). In words: biochemical. The note with it: Table VII. From the text:
We measured the inhibition constants of the compounds listed in Table VII against HIV-1 protease using the above-cited method of Pennington et al.

In experiment [2] the test system is HIVIIIb in CCRM-CEM cells. In words: Anti-viral potency in CCRM-CEM cells acutely infected with HIVIIIb (method of Meek et al.), extracellular p24 antigen. Type of experiment: cell-based, HIV-1. The settings on record: Human immunodeficiency virus 1, HIV replication, Table VIII, read-out: IC90 Range. Summed up:
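Compounds in DMSO were added to CCRM-CEM cells (CD4+ human T-cell lymphoma) acutely infected with HIVIIIb following Meek et al. Inhibition of viral replication was determined from extracellular p24 antigen concentration measured by enzyme immunoassay.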

Compound `CC(C)CN(C[C@@H](O)[C@H](Cc1ccccc1)NC(=O)OC1CCOC1)S(=O)(=O)c1ccc(F)cc1` (stereo partly drawn) [Compound 52, 4-Fluoro-N-((2 syn,3S)-2-hydroxy-4-phenyl-3-((R)-tetrahydrofuran-3-yloxycarbonylamino)-butyl)-N-isobutyl-benzenesulfonamide and 4-Fluoro-N-((2 syn,3S)-2-hydroxy-4-phenyl-3-((R)-tetrahydrofuran-3-yloxycarbonylamino)-butyl)-N-isobutyl-benzenesulfonamide] showed a pKi in experiment [1] of 9.40. For the same compound, in experiment [2], the IC90 lay in the range of 101 to 1000 nM.

The compound `C=CCOC(=O)N[C@@H](Cc1ccccc1)[C@H](O)CN(CC(C)C)S(=O)(=O)c1ccc(F)c(NC(C)=O)c1` [Compound 87] had a pKi in experiment [1] of 8.00. Besides, in experiment [2], the IC90 fell in the range of 1000 to 10000 nM.

On to `CC(C)CN(C[C@@H](O)[C@H](Cc1ccccc1)NC(=O)OCC1CCOC1)S(=O)(=O)c1ccc(F)cc1` (stereo partly drawn) [Compound 97, 4-Fluoro-N-(2 syn,3S)-2-hydroxy-4-phenyl-3-((tetrahydro-furan-(R)-3-ylmethoxycarbonylamino)-butyl)-N-isobutyl-benzenesulfonamide and 4-Fluoro-N-(2 syn,3S)-2-hydroxy-4-phenyl-3-((tetrahydro-furan-(S)-3-ylmethoxycarbonylamino)-butyl)-N-isobutyl-benzenesulfonamide], for which the pKi in experiment [1] was 8.60. The 90% effect concentration (IC90) in experiment [2] lay within 101 to 1000 nM.

Consider `CC(C)CN(C[C@@H](O)[C@H](Cc1ccccc1)NC(=O)OCc1ccccn1)S(=O)(=O)c1ccc(F)c(F)c1` [Compound 108], for which the pKi in experiment [1] is 8.70. Also, the IC90 in experiment [2] lay in the range of 1000 to 10000 nM.

With `CC(C)CN(C[C@H](O)[C@H](Cc1ccccc1)NC(=O)[C@H](CC(N)=O)NC(=O)c1ccc2ccccc2n1)S(=O)(=O)c1cccc2nonc12` [Compound 192], the pKi in experiment [1] was 7.17. Besides, the IC90 in experiment [2] is 1000 to 10000 nM.
